Paper PMC6214143, “Oncotoxic Properties of Serotonin Transporter Inhibitors and 5-HT1A Receptor Ligands” (International Journal of Molecular Sciences, 2018)
Where a name gives a salt, the structure may show the parent alone.

Assays:
Balb/c 3T3 cells = assay: MTT cell survival assay, Balb/c 3T3 cells (normal reference); type: cell-based, murine; details: Mus musculus, BALB/c3T3, 72 h
Procedure: (§1) The effects of the test compounds on the survival of PC-3, SH-SY5Y, Balb/c 3T3 and HEK293 cells was measured with the aid of the 3-(4,5-dimethylthiazol-2-yl)-2,5-diphenyltetrazolium bromide (MTT) assay. The cells were cultured in 96-well plates (100 μL/well) for 72 h. The optimized initial densities were the following: for PC-3—60,000 cells/mL, SH-SY5Y and Balb/c 3T3—50,000 cells/mL.
(§2) After 20 h preincubation and evaluation of the uniformity of cell growth, the medium was aspirated, and the respective solutions of the substances were added to the culture medium. Control cells were only treated the solvent used for the compounds and medium alone.
(§3) MTT (3-(4,5-dimethylthiazol-2-yl)-2,5-diphenyltetrazolium bromide) is reduced by intracellular dehydrogenase, which is present only in live cells (mitochondria), to purple, water-insoluble formazan. After it is dissolved, formazan absorbance of the resulting solution is directly proportional to the number of living cells in culture.
After appropriate incubation, the culture medium was removed. Next, 50 μL of MTT solution (0.5 mg/mL) diluted in PBS to 0.5 mg/mL was added to each well. The plates were incubated for 3 h at 37 °C. Then, the precipitated formazan was dissolved by the addition of 200 μL isopropanol. After a 24-hour incubation at 4 °C in the dark, the absorbance of the dissolved formazan was measured at 570 nm (the maximum absorption of formazan) and at 690 nm (reference wavelength) using a Power Wave XS microplate spectrophotometer (Bio-Tek, Winooski, VT, USA). The plates were sealed to reduce evaporation before incubation. The test was performed in three to five independent experiments with four times the measured concentration tested. The cell survival percentage was determined as % of controls, which were cells treated with the test compound solvent at the highest concentration.

5-HT1A receptor [1] = molecular target: T1, 5-HT1A receptor (Homo sapiens, UniProt P08908); assay: ERK1/2 phosphorylation (HTRF) in HEK293 cells that overexpress the 5-HT1AR gene; type: cell-based; details: for EC50: agonist mode, HEK293-5-HT1A cells, read-out: ERK1/2 EC50
T1 construct: EGFP; expressed in transfected cells
T1 sequence (P08908 1-422): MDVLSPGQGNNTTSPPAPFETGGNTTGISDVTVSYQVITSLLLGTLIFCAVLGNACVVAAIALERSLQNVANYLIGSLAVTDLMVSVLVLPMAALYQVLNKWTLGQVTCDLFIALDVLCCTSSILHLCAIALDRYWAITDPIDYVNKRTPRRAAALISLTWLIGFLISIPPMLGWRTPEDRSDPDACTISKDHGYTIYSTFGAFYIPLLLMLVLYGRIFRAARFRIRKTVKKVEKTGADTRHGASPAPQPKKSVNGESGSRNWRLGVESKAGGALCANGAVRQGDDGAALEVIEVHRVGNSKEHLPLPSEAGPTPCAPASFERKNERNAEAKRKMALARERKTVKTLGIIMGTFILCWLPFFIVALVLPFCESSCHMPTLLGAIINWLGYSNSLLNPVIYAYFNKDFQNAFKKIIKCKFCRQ
Procedure: (§4) The examination of the functional activity read out as cAMP level inhibition and ERK1/2 and Akt1 phosphorylation was performed according to the instructions of the One-plate Cisbio Bioassays cAMP dynamic 2, phospho-ERK (Thr202/Tyr204) and Akt1 phospho- S473 Cellular Assay Kits respectively, using a HEK293 human fibroblast cell line that overexpresses 5-HT1A receptors. […] The cAMP levels in PC-3 cells were determined using 600,000 cells/mL. Receptor activation with the appropriate ligands was carried out for 30 min, and then the cells were lysed. The results were analyzed with GraphPad Prism v 6.0 (GraphPad Software, San Diego, CA, USA) using its in-built functions. Ligand activity was determined using a 4-parameter equation of the dose-response function. […] M.
(§5) All compounds were tested with both agonists and antagonists. To test the response of cAMP to an agonist the cells were activated with forskolin (1 µM) followed by agonist addition. […] Data are an average of minimum three independent experiments in duplicate. The control of specific activity was measured under the same conditions on cells lacking the 5-HT1A receptor. The results were expressed as % of the reference agonist activity. In the antagonist mode 100% of the reference agonist activity (EC80) corresponded to 0% antagonist activity.

SH-SY5Y cells = assay: MTT cell survival assay, SH-SY5Y cells; type: cell-based, human; details: for IC50: Homo sapiens, SH-SY5Y cells, MTT, 72 h; for Selectivity Index: IC50 Balb/c 3T3 / IC50 SH-SY5Y
Procedure: as §1, §2, §3
(§6) After appropriate incubation, the culture medium was removed. Next, 50 μL of MTT solution (0.5 mg/mL) diluted in PBS to 0.5 mg/mL was added to each well. […] Then, the precipitated formazan was dissolved by the addition of 200 μL isopropanol. […] The plates were sealed to reduce evaporation before incubation. The test was performed in three to five independent experiments with four times the measured concentration tested. The cell survival percentage was determined as % of controls, which were cells treated with the test compound solvent at the highest concentration.

PC-3 cells = assay: MTT cell survival assay, PC-3 cells; type: cell-based, human; details: for IC50: Homo sapiens, PC-3 cells, MTT, 72 h; for Selectivity Index: IC50 Balb/c 3T3 / IC50 PC-3
Procedure: as §1, §2, §3, §6

5-HT1A receptor [2] = molecular target: T1, 5-HT1A receptor; assay: cAMP level (HTRF) in HEK293 cells that overexpress the 5-HT1AR gene; type: cell-based
Procedure: as §4, §5

[3] = molecular target: T2, serotonin transporter (SERT) (Rattus norvegicus, UniProt P31652); assay: In vitro binding affinity for serotonin transporter ([3H]-citalopram displacement); details: rat cerebral cortex, read-out: SERT Ki ± SEM
T2 construct: Rat cerebral cortex was homogenized in 30 volumes of ice-cold 50 mM Tris-HCl; from tissue; host or cells: rat cerebral cortex (membrane pellet)
T2 sequence (P31652 whole entry): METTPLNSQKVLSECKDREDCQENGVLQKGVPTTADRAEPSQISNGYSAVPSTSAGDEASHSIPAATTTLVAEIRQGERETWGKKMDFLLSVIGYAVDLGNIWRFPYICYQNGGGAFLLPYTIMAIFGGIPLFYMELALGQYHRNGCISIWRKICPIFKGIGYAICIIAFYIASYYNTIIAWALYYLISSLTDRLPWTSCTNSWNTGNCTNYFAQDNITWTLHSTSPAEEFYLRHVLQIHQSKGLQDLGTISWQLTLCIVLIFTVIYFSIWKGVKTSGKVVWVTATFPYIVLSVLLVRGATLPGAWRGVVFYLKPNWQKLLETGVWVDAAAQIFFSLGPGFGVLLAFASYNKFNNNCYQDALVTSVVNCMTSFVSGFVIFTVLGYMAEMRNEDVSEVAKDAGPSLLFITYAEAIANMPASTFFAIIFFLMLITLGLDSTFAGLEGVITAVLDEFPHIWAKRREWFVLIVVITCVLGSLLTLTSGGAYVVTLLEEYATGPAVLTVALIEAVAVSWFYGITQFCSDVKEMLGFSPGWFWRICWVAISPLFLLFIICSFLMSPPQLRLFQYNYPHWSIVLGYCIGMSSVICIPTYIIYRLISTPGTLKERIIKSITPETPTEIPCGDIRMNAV
Procedure: The experiments were performed according to the method described by Owens et al. Rat cerebral cortex was homogenized in 30 volumes of ice-cold 50 mM Tris-HCl containing 150 mM NaCl and 5 mM KCl, pH 7.7 at 25 °C and centrifuged at 20,000 × g for 20 min. The supernatant was decanted, and the pellet was resuspended in 30 volumes of buffer and centrifuged three times. The final pellet was suspended in Tris-HCl buffer at a proportion of approximately 5 mg wet weight/mL. An increasing concentration of the analyzed compounds (30 μL) was added to the incubation mixture containing 240 μL of tissue suspension and 30 μL of 1 nM [^3H]-citalopram (used for labeling 5-HT-transporter). Non-specific binding was determined in the presence 30 μL of 1 μM imipramine (displacer). Duplicate samples were incubated at room temperature for 1 h. The incubation was terminated by rapid filtration over fiberglass filters FilterMate B (Perkin Elmer, Waltham, MA, USA) using a 96-well FilterMate harvester (PerkinElmer, Waltham, MA, USA). The radioactivity of the filters was measured with a MicroBeta TriLux 1450 scintillation counter. Ki values were calculated from the Cheng–Prusoff equation [31]: (1) Ki=IC50/1+Lo/KD where Lo is the labeled ligand concentration, and KD is the dissociation constant of the labeled ligand.

[4] = system: PC-3 prostate cancer cells; assay: Apoptosis determination (FITC Annexin V, flow cytometry) in PC-3 cells; type: cell-based, human; details: 72 h, sum of early and late apoptosis
Procedure: Apoptosis was measured using the FITC Annexin V Apoptosis Detection Kit I (BD Biosciences, San Jose, CA, USA). Cells, after incubations 72 h with tested agents, were centrifuged, rinsed twice with cold phosphate-buffered saline (PBS) and suspended in binding buffer at 1 × 10^6 cells/mL. Then, 100-μL volumes of the cell suspensions were labeled according to the manufacturer’s instructions. Flow cytometry analysis was performed within 1 h after labeling. Flow cytometry analyses was run on a FACSCanto II flow cytometer (BD Biosciences, San Jose CA, USA) and analyzed using BD FACSDiva software.

[5] = parameters: method as in PMID 23574807; details: Porsolt forced swim test; cited from earlier work

IC50 (5-HT1A receptor [1]) [µM]	melting point [°C]	IC50 (5-HT1A receptor [2]) [µM]	Ki [3] [µM]	EC50 (5-HT1A receptor [1]) [µM]	SMILES	IC50 (Balb/c 3T3 cells) [µM]	IC50 (SH-SY5Y cells) [µM]	Selectivity Index (SH-SY5Y cells)	IC50 (PC-3 cells) [µM]	Selectivity Index (PC-3 cells)	apoptosis ([4]; 25 μM) [%]	apoptosis ([4]; 50 μM) [%]	apoptosis ([4]; 75 μM) [%]	antidepressant activity [5]	Selectivity Index (PC-3 cells; listed as KW117 (6))
0.78	107 to 108	0.002	0.0149 ± 0.0016	–	Cl.O=[N+]([O-])c1ccc2nc(N3CCN(CC4CCCCC4)CC3)ccc2c1 [AB21, 2-[4-(cyclohexylmethyl)piperazin-1-yl]-6-nitroquinoline hydrochloride]	20.5 ± 3.5	21.6 ± 1.07	0.95	18 ± 1.88	1.14	–	–	–	–	–
–	–	–	–	–	COc1ccccc1N1CCN(CCN(C(=O)C2CCCCC2)c2ccccn2)CC1 [WAY100635, N-[2-[4-(2-Methoxyphenyl)-1-piperazinyl]ethyl]-N-2-pyridinylcyclohexanecarboxamide maleate, reference compound]	88 ± 13.5	74.3 ± 11.8	–	43.3 ± 4.05	–	–	–	–	–	–
0.9	–	0.73	–	–	CCCCCCCCCCCN1CCN(c2ccc3cc([N+](=O)[O-])ccc3n2)CC1.Cl [AZ07, 6-nitro-2-(4-undecylpiperazin-1-yl)quinoline hydrochloride]	11.5 ± 0.62	9.15 ± 0.74	1.26	5.74 ± 1.02	2.00	20	35	44	moderate antidepressant activity	–
–	–	1	–	4.23	CC(=O)N1CCC(c2ccc(F)cc2)C(COc2ccc3c(c2)OCO3)C1 (stereo not drawn) [N-Ac-Paroxetine, reference compound]	66.2 ± 2.35	65.6 ± 1.01	1.01	45.3 ± 1.44	1.46	–	–	–	–	–
–	–	–	–	–	CNCCC(Oc1ccc(C(F)(F)F)cc1)c1ccccc1 (stereo not drawn) [Fluoxetine, fluoxetine, reference compound]	–	–	–	–	–	21	60	80	–	–
7.18	–	–	–	–	CCCCCCCCN1CCN(c2ccc3cc([N+](=O)[O-])ccc3n2)CC1.Cl [KW117, 6-nitro-2-(4-octylpiperazin-1-yl)quinoline hydrochloride]	38.1 ± 6.54	25.4 ± 2.66	1.50	14.4 ± 1.7	–	–	–	–	moderate antidepressant activity	2.65
11.2	–	20.1	–	–	COCCCC/C(=N\OCCNC(C)=O)c1ccc(C(F)(F)F)cc1 [N-Ac-Fluvoxamine, reference compound]	136 ± 3.95	112 ± 3.85	1.21	92.2 ± 9.65	–	–	–	–	–	–
–	99 to 101	76.1	0.0076 ± 0.0008	0.0138	Cl.O=[N+]([O-])c1ccc2nc(N3CCN(CC4CCC4)CC3)ccc2c1 [AB22, 2-[4-(cyclobutylmethyl)piperazin-1-yl]-6-nitroquinoline hydrochloride]	35.5 ± 8.71	35 ± 8.96	1.01	23.5 ± 2.21	1.51	–	–	–	–	–
17.9	–	96.9	0.0074 ± 0.0024	–	Cl.O=[N+]([O-])c1ccc2nc(N3CCN(Cc4ccc(F)cc4)CC3)ccc2c1 [AB5A, 2-[4-(4-fluorobenzyl)piperazin-1-yl]-6-nitroquinoline hydrochloride]	38.9 ± 4.08	18.1 ± 1.68	2.15	27.2 ± 3.2	1.43	–	–	–	–	–
1.28	–	9.7	–	–	CCCCCCCCCN1CCN(c2ccc3cc([N+](=O)[O-])ccc3n2)CC1 [AZ05, 6-nitro-2-(4-nonylpiperazin-1-yl)quinolone hydrochloride]	24.4 ± 1.49	17.3 ± 1.85	1.41	9.85 ± 0.79	2.48	–	–	–	moderate antidepressant activity	–
–	–	0.0511	–	0.15	Fc1ccc([C@@H]2CCNC[C@H]2COc2ccc3c(c2)OCO3)cc1 [Paroxetine, paroxetine, reference compound]	14.9 ± 0.24	18.1 ± 0.48	0.82	12.1 ± 0.37	1.23	–	–	–	–	–
–	–	–	–	–	COCCCC/C(=N\OCCN)c1ccc(C(F)(F)F)cc1 [Fluvoxamine, fluvoxamine, reference compound]	52 ± 5.4	89.4 ± 3.64	–	47.8 ± 2.85	–	–	–	–	–	–
